In US20180071238A1, “Compositions and Methods for Traumatized Tissues Using Zinc Chelators” (Ohio University, priority 2015, published 2018):

Test: Zinc dissolution and precipitation in solutions of different pH (naked eye and microscope)
Type: physicochemical
Settings: FIGS. 7A-7C
Protocol: Zinc dissolution in acidic solution and zinc precipitation or crystallization in neutral or basic solution is shown in the photographs in FIGS. 7A-7C. The tests were carried out by the application of zinc into solutions.

[Zn+2] [zinc]
solubility of zinc in solution (acidic conditions): generally soluble
solubility of zinc in solution (neutral and basic conditions): tends to crystallize or precipitate
